In patent US7662626B2, “Cells and methods for estimation of effects on neurological dysfunction” (Kabushiki Kaisha Toshiba, priority 2005, dated 2010):

Key:
Format in all cases: cell-based, mouse
[1] = system: Neuro2a transfected with aryl hydrocarbon receptor-expressing nucleic acid pcDNA4-rAhR; assay: Neurite outgrowth (cell morphology) of cell strains transfected with pcDNA4-rAhR; conditions: 10 nM, DF1:1 medium, 1 to 3 weeks; two selected AhR-transfected Neuro2a strains (FIG. 2)
Method: (3) Cells in which neurites outgrow this observed by adding ligand of the aryl hydrocarbon receptor, are selected from the cell strains obtained in (c). Cells into which the receptor-expressing nucleic acid is transfected are cultured in a conventional culture medium such as DF1:1 medium containing 10% fetal bovine serum with or without adding ligand of the aryl hydrocarbon receptor for 1 to 3 weeks. And morphological changes are compared between the two types of the cells described above. The number of the neurite from the cell, the length of the neurite, and the number of the cells in which the neurite is outgrown are compared when the morphology changes of the cell strain are used as indications. It is more preferable that comparison of increase of a proportion of a number of cells with neurite having a twofold length of a diameter of the each cells, to the total cells which are in contacted with a ligand of aryl hydrocarbon receptor. The cells in which the neurite is outgrown by adding ligand of the aryl hydrocarbon receptor are selected, by comparing the cells in which the receptor-expressing nucleic acid is transfected by adding the ligand of the aryl hydrocarbon receptor with the cells in which the receptor-expressing nucleic acid is transfected without adding the ligand of the aryl hydrocarbon receptor. […]

[2] = system: aryl hydrocarbon receptor; assay: CYP1A1 gene expression by reverse transcription PCR in selected cell strains; conditions: 30 nM, 24 hours, with vs without; both selected cell strains
Description: (2) Cells functionally expressed the aryl hydrocarbon receptor protein are selected from the cells obtained in (c). A gene known to be able to induce expression of the gene through activation of the aryl hydrocarbon receptor is used as a marker as an indication of the selection. Examples of the gene include genes for CYP1A1, UGT glycosyltransferase 1 family, polypeptide A6 (UGT1A6) or glutathione-S-transferase (GST). The selection procedure includes, for example, culturing the cells to be selected in a conventional culture medium such as DF1:1 medium containing 10% of fetal bovine serum for 1 to 5 days; culturing the cells in a conventional culture medium such as DF1:1 medium containing 10% of fetal bovine serum for 1 week by adding a ligand of aryl hydrocarbon receptor; and extracting RNAs from the cells to detect the expression of the marker gene by a known RNA detection method such as northern hybridization and reverse transcription PCR. Alternatively, the protein translated from the marker gene is detected by a known detection method such as western blotting. The cells confirmed to induce the expression of the marker gene by this confirmation are selected.
After cultivating these cell strains in DF1:1 suppremented with or without 30 nM of 2,3,7,8-TCDD for 24 hours, total RNAs were extracted from the cells. An RNeasy kit was used for extraction of total RNA. […]

[3] = system: Neuro2a; assay: CYP1A1 gene expression by reverse transcription PCR in parent Neuro2a; conditions: 30 nM, 24 hours; parent Neuro2a (no AhR gene detected)
Method: After cultivating these cell strains in DF1:1 suppremented with or without 30 nM of 2,3,7,8-TCDD for 24 hours, total RNAs were extracted from the cells. An RNeasy kit was used for extraction of total RNA. The extracted RNA was reverse-transcripted using an oligo(dT) primer. Subsequently, expression of CYP1A1 gene was confirmed by 25 cycles of PCR comprising 1 cycle with denaturation of 94° C./30 second, annealing of 55° C./30 seconds and extension of 72° C./30 seconds. CYP1A1 gene is one of genes, of which expression thereof is induced by binding of the aryl hydrocarbon receptor activated by binding of a ligand to XRE (xenobiotic responsive element) on DNAs. A forward primer 5′-CCCACAgCACCACAAgAgATA (SEQ ID NO: 5) and a reverse primer 5′-AAgTAggAggCACAATgTC (SEQ ID NO: 6) were used as primers for PCR. As a result, expression of CYP1A1 gene was increased by adding 2,3,7,8-TCDD in both of two selected cell strains. While the same experiment was performed with respect to Neuro2a, no increase of the amount of expression of CYP1A1 gene was observed.

[4] = system: TH gene, Cdc42 gene and tau gene; assay: Marker gene expression (TH, Cdc42, tau) by reverse transcription PCR in selected cell strains; conditions: selected two cell strains cultured with vs without 2,3,7,8-TCDD (FIG. 3)
Method: Total RNAs were extracted with an RNeasy kit after culturing the selected two cell strains in DF1:1 medium supplemented with 2,3,7,8-TCDD, and cDNA was synthesized by a reverse transcription reaction. Subsequently, using cDNA synthesized above as a template and ExTaq (manufactured by Takara Bio Inc.), expression of the TH gene was confirmed by 25 cycles of PCR comprising one cycle with denaturation of 94° C./30 second, annealing of 60° C./30 seconds and extension of 72° C./30 seconds. Also, expression of the Cdc42 gene and tau gene was confirmed by 25 cycles of PCR comprising one cycle with denaturation of 94° C./30 second, annealing of 58° C./30 seconds and extension of 72° C./30 seconds. A forward primer 5′-CCACggTgTACTggTTCACT (SEQ ID NO: 7) and a reverse primer 5′-ggCATAgTTCCTgAgCTTgT (SEQ ID NO: 8) were used as primers for the TH gene; a forward primer 5′-gATACTgCAgggCAAgAgg (SEQ ID NO: 9) and a reverse primer 5′-CAggCACCCACTTTTCTTTC (SEQ ID NO: 10) were used as primers for the Cdc42 gene; and a forward primer 5′-TCCggAgAACgAAgCggCTACAgC (SEQ ID NO: 11) and a reverse primer 5′-TgCTgAggTgCCgTggAgATgTgT (SEQ ID NO: 12) were used as primers for the tau gene. As a result, the amounts of expression of the TH gene, Cdc42 gene and tau gene were increased in any of the two selected cell strains cultured with 2,3,7,8-TCDD as compared with the cell strains cultured without 2,3,7,8-TCDD (FIG. 3).

[5] = system: tau protein and TH protein; assay: Marker protein expression (tau, TH) by western blotting in selected cell strains; conditions: 10 nM, three weeks, with vs without; selected two cell strains (FIG. 4)
Method: After the selected two cell strains were cultured in DF1:1 medium supplemented with 10 nM of 2,3,7,8-TCDD for three weeks, the amounts of expression of the tau protein and TH protein were confirmed by extracting the proteins and by conducting western blotting with a tau protein antibody and TH protein antibody. The amounts of expression of the tau protein and TH protein were increased in any of the selected two cell strains as compared with neurotoxicity responsive cells cultured without adding 2,3,7,8-TCDD (FIG. 4).

## Clc1cc2c(cc1Cl)Oc1cc(Cl)c(Cl)cc1O2 [2,3,7,8-TCDD, 2,3,7,8-tetrachlorodibenzo-p-dioxin]
[1]
  neurite outgrowth (morphology of the cell): particularly high proportion of neurite outgrowth
[2]
  expression of CYP1A1 gene: increased
[3]
  amount of expression of CYP1A1 gene: no increase
[4]
  amount of expression of the Cdc42 gene: increased
  amount of expression of the TH gene: increased
  amount of expression of the tau gene: increased
[5]
  amount of expression of the TH protein: increased
  amount of expression of the tau protein: increased
